Measured values reported in ChEMBL document CHEMBL1201862, “PubChem BioAssay data set” (2004).
Activity calls are given as the source filed them.

Columns and labels:
[1] = target: Hexokinase HKDC1 (Homo sapiens, UniProt Q2TB90); experiment: HKDC1 hexokinase activators, dose response, biochemical, W721R variant (AID 504730); type: functional
[2] = target: Hexokinase-1 (Homo sapiens, UniProt P19367); experiment: hexokinase 1 activators, dose response, selectivity assay for HKDC1 activator project, biochemical (AID 504762); type: functional
[3] = target: 26S proteasome non-ATPase regulatory subunit 14 (Homo sapiens, UniProt O00487); experiment: inhibition of proteasome subunit RPN11 – biochemical, fluorescence polarization, uHTS hits, confirmation (AID 602368); type: functional
[4] = target: 72 kDa type IV collagenase (Homo sapiens, UniProt P08253); experiment: Dose Response validation of uHTS RPN11 inhibitor hits using a MMP-2 Fluorescence assay.; type: functional
[5] = target: Prothrombin (Bos taurus, UniProt P00735); experiment: thrombin inhibition, dose response, biochemical, fluorescence polarization, uHTS hits (AID 602369); type: functional
[6] = test system: Escherichia coli; experiment: microbe, parasite or virus in culture
[7] = target: T1, Bcl-2-related protein A1 (Mus musculus, UniProt Q07440); type: functional;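 note: confirmatory dose–response counterscreen on Bfl-1, used to check hits from a UBC13 polyubiquitin inhibitor campaign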
T1 sequence (Q07440 whole entry): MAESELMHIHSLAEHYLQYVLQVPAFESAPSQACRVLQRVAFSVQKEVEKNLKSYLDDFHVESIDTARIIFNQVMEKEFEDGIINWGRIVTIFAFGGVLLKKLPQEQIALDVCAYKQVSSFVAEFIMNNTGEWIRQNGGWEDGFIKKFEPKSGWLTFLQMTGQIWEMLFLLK

[8] = target: T2, Ubiquitin-conjugating enzyme E2 N (Homo sapiens, UniProt P61088); type: functional
T2 sequence (P61088 whole entry): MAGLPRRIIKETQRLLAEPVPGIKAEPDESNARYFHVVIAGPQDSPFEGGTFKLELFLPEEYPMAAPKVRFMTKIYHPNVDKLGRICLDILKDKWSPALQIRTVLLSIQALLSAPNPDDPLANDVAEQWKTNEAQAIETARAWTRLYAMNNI

[9] = target: T2, Ubiquitin-conjugating enzyme E2 N; type: functional; remark: listed apart in the source
[10] = target: Intestinal-type alkaline phosphatase (Mus musculus, UniProt P24822); experiment: PubChem AID 488874; type: functional
Chain of Intestinal-type alkaline phosphatase (Mus musculus, UniProt P24822) (P24822 whole entry): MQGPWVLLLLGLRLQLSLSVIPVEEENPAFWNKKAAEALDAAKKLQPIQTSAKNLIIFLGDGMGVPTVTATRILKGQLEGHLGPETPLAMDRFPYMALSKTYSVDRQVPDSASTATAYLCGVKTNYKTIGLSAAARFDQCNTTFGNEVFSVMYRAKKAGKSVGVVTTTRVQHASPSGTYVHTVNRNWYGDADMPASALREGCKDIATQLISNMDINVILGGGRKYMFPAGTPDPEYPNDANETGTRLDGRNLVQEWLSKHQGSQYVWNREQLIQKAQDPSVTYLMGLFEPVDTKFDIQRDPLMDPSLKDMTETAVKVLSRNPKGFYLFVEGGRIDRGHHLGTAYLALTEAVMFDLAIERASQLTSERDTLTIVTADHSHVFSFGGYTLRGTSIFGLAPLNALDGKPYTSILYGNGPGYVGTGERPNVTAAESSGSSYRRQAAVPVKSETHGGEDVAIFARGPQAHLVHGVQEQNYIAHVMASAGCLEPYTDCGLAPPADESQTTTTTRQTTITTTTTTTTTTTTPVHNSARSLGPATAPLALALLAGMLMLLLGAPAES

[11] = target: T3, Intestinal-type alkaline phosphatase (Homo sapiens, UniProt P09923); experiment: human intestinal alkaline phosphatase activators, dose response, biochemical, luminescence, uHTS hits (AID 463120); type: functional
T3 sequence (P09923 whole entry): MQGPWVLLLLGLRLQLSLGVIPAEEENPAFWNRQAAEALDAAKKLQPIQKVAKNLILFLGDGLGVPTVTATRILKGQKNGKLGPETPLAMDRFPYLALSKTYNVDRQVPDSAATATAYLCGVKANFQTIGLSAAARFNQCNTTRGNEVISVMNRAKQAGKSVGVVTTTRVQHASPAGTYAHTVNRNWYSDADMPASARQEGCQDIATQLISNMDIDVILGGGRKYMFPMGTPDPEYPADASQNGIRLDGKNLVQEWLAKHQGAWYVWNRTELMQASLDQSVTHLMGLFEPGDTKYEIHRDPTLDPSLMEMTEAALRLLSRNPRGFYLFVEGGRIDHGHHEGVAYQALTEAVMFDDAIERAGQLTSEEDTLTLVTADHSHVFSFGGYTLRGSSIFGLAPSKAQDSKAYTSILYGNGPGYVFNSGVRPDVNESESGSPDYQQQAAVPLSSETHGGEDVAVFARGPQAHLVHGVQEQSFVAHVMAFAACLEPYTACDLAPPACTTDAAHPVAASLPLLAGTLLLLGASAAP

[12] = target: T3, Intestinal-type alkaline phosphatase; experiment: human IAP activators, dose response, biochemical, luminescent, uHTS hits, set 2 (AID 488817); type: functional;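 note: potency of activators that raise enzyme activity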
[13] = target: T4, Alkaline phosphatase, tissue-nonspecific isozyme (Homo sapiens, UniProt P05186); experiment: TNAP enzyme activators, dose response, selectivity assay for human IAP activator project, biochemical, TNAP isozyme, human IAP uHTS hits (AID 488886); type: functional;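 note: potency of compounds raising TNAP activity as a selectivity check on IAP activators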
T4 sequence (P05186 whole entry): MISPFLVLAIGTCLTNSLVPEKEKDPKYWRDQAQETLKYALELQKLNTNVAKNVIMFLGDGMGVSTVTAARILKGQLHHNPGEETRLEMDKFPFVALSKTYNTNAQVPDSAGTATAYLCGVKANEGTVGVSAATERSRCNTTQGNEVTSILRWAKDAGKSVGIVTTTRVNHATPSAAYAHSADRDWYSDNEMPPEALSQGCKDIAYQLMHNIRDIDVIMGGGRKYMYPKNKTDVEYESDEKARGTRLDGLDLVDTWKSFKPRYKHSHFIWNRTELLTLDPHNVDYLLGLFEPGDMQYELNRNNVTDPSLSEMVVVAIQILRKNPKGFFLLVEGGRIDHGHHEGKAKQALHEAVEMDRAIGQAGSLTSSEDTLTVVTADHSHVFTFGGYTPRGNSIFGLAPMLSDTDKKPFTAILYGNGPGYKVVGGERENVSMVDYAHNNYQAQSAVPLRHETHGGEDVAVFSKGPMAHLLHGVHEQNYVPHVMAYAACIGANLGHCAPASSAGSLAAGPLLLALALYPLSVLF

[14] = target: Peroxisome proliferator-activated receptor gamma/Nuclear receptor coactivator 1 (Homo sapiens, UniProt P37231); experiment: (§1) TR-FRET dose response biochemical High Throughput Screening assay for agonists of the steroid receptor coactivator 1 (SRC-1) recruitment by the peroxisome proliferator-activated receptor gamma (PPAR gamma): non-selective agonists. [Related pubchem assays (depositor defined):AID1300, AID1808, AID504735, AID631]; type: protein assay
Chain of Peroxisome proliferator-activated receptor gamma/Nuclear receptor coactivator 1 (P37231 whole entry): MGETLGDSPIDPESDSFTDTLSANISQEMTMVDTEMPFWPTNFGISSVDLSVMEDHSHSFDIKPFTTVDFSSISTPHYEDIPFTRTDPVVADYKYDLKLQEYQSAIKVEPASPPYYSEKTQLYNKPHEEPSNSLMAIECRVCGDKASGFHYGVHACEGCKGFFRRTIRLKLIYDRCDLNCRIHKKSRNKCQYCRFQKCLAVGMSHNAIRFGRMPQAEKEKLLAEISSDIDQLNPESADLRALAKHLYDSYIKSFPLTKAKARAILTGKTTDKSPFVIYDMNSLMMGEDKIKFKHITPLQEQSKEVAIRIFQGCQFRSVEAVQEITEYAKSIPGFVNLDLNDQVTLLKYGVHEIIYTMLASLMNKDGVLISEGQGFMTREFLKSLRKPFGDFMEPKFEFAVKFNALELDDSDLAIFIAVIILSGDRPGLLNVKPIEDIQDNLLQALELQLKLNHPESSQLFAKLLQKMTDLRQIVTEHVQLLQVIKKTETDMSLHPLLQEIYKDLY
Chain of Peroxisome proliferator-activated receptor gamma/Nuclear receptor coactivator 1 (Q15788 whole entry, further chain): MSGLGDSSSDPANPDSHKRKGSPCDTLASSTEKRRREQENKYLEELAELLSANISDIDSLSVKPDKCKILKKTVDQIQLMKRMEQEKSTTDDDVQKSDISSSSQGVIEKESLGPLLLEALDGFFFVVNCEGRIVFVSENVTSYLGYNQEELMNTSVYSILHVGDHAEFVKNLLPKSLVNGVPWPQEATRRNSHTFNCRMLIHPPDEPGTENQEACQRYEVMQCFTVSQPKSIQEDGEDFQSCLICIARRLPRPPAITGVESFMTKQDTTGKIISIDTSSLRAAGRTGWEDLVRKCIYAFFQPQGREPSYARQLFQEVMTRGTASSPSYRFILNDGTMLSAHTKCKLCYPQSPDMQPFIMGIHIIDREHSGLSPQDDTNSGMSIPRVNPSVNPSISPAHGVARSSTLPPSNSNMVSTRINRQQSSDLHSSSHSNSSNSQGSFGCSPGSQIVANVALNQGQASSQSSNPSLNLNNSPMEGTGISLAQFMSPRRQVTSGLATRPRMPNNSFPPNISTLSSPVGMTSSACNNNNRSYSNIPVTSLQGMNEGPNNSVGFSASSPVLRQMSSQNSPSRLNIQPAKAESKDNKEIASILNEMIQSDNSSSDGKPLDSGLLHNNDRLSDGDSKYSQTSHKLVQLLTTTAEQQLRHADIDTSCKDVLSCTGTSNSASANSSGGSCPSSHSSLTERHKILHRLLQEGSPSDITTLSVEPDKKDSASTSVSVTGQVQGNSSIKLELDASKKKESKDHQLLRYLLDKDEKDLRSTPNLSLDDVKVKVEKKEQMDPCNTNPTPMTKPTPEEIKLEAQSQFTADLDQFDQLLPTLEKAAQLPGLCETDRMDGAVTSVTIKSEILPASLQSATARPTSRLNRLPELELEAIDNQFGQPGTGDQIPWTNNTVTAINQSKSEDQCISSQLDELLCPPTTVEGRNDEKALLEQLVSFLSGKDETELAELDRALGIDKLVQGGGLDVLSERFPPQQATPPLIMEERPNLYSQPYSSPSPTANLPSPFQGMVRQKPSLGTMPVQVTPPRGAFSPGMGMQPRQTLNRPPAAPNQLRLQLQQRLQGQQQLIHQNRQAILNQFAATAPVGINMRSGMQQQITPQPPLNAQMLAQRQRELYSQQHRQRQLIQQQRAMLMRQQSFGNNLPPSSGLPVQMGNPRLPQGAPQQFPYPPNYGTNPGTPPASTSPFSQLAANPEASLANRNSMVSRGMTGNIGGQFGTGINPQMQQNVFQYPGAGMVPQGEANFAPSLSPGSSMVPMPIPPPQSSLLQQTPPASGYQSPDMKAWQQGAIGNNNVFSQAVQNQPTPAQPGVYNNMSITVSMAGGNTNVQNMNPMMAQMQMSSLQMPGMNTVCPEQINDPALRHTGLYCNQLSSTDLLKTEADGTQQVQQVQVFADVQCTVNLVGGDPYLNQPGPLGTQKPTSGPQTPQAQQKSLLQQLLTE

[15] = target: Peroxisome proliferator-activated receptor gamma/Nuclear receptor coactivator 3 (Homo sapiens, UniProt P37231); experiment: as §1, with “3 (SRC-3)” for “1 (SRC-1)”, “assays: 1301 (Confirmation screen.), 1048 (Primary screen.)]” for “assays (depositor defined):AID1300, AID1808, AID504735, AID631]”; type: functional
Chain of Peroxisome proliferator-activated receptor gamma/Nuclear receptor coactivator 3 (P37231 whole entry): as the sequence (P37231 whole entry) above
Chain of Peroxisome proliferator-activated receptor gamma/Nuclear receptor coactivator 3 (Q9Y6Q9 whole entry, further chain): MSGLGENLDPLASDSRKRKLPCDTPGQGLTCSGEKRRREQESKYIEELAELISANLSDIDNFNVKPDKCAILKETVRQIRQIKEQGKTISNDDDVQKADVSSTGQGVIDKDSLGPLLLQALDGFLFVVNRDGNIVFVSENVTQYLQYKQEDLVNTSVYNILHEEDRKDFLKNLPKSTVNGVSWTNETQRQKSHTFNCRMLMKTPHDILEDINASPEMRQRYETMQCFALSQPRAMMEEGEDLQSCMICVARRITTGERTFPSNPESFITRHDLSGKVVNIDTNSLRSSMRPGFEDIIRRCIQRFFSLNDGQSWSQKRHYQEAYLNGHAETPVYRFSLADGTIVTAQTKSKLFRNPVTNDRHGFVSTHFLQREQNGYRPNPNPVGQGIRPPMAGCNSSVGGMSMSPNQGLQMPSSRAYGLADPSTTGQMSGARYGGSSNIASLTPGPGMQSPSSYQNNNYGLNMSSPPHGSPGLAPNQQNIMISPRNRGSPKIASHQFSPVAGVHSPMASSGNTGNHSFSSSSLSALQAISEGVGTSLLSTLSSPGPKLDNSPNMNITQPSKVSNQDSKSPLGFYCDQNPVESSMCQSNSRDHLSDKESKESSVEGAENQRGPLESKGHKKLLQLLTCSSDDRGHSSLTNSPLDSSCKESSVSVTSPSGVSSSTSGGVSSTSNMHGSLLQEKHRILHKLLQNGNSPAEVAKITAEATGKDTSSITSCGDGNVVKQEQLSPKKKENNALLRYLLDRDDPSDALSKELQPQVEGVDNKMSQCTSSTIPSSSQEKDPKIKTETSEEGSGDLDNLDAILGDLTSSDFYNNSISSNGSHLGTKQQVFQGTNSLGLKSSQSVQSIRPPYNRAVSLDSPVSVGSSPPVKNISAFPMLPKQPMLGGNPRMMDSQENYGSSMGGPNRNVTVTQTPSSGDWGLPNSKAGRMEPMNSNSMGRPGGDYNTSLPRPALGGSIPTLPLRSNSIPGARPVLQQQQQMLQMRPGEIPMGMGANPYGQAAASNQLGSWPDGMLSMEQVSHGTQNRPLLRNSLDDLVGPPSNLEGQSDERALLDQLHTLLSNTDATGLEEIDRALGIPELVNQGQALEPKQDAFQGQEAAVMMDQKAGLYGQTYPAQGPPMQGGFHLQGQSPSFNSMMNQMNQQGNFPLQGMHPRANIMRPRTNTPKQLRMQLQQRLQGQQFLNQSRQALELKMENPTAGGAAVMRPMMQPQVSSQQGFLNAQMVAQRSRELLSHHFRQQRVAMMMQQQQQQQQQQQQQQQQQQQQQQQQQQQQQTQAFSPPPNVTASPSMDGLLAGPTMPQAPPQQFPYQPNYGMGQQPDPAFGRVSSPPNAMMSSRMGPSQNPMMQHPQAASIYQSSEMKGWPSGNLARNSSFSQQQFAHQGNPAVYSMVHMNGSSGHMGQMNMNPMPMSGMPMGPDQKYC

[16] = target: Peroxisome proliferator-activated receptor gamma/Nuclear receptor coactivator 2 (Homo sapiens, UniProt P37231); experiment: TR-FRET dose response biochemical High Throughput Screening assay for agonists of the steroid receptor coactivator 2 (SRC-2) recruitment by the peroxisome proliferator-activated receptor gamma (PPAR gamma): non-selective agonists. [Related pubchem assays: 1297, 1032 ]; type: functional
[17] = target: T5, Long-chain-fatty-acid--AMP ligase FadD28 (Mycobacterium tuberculosis, UniProt P9WQ59); experiment: Fluorescence polarization aasay to screen for inhibitors that compete for the binding of FadD28 to a bisubstrate Measured in Biochemical System Using Plate Reader - 2147-01_Inhibitor_Dose_CherryPick_Activity.; type: functional, Mycobacterium tuberculosis H37Rv
T5 sequence (P9WQ59 whole entry): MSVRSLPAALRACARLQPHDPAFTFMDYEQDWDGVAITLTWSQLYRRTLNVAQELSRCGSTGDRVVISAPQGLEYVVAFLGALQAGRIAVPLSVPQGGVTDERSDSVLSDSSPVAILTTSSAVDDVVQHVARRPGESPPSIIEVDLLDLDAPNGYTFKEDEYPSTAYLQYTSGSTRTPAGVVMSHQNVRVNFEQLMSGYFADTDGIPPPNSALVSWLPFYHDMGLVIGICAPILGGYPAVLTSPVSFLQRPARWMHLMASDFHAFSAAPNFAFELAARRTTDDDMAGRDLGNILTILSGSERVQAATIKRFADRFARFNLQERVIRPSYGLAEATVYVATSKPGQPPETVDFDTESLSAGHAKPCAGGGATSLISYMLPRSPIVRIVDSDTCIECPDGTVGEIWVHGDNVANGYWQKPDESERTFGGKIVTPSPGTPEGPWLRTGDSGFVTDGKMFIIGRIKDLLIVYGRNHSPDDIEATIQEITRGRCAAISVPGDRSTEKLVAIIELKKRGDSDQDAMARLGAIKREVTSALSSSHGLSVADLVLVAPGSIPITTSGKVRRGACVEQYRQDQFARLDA

[18] = target: Cytochrome P450 2C19 (Homo sapiens, UniProt P33261); experiment: Cytochrome panel assay with activity outcomes. Panel member name: p450-cyp2c19 Compounds with AC50 equal or less than 10 uM are considered active; type: functional; conditions: read-out: AC50
[19] = target: T6, Cytochrome P450 1A2 (Homo sapiens, UniProt P05177);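 note: PubChem cytochrome P450 panel assay, CYP1A2 panel member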
T6 sequence (P05177 whole entry): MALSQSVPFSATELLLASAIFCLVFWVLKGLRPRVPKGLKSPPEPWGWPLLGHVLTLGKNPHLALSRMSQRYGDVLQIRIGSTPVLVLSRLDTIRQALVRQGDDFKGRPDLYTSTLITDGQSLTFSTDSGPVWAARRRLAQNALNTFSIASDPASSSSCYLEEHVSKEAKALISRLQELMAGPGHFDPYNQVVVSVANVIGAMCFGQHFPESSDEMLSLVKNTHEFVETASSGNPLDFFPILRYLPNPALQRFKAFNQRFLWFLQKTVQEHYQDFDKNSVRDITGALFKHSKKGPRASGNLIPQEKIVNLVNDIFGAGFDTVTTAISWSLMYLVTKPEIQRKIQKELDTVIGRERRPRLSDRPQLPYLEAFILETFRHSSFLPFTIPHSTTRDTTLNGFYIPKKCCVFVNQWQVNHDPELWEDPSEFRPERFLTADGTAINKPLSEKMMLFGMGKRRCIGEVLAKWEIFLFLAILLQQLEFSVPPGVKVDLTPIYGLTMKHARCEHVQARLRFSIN

[20] = target: Cytochrome P450 3A4 (Homo sapiens, UniProt P08684);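 note: CYP3A4 tested as one member of a cytochrome P450 panel screen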
[21] = target: Cytochrome P450 2C9 (Homo sapiens, UniProt P11712)
[22] = cytotoxicity in HEK-293T cells, dose response, cytotoxicity control for BCR NF-kB inhibitor project, luminescence, B-cell screen hits (AID 489021); type: functional, cell-based;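 note: HEK-293T cells carrying an NF-kB luciferase reporter; cells exposed to compound for about 14 hours before viability readout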

For `COc1ccc(-c2[nH]c(-c3ccc(SC)cc3)nc2SCC(=O)Nc2nccs2)cc1`, the EC50 [1] was 10.9 µM (active), the EC50 [2] was 16.3 µM (active) and the IC50 [3] was 19.6 µM (active). The IC50 [4] was > 100 µM (inactive) and the IC50 [5] was 49.9 µM (active).
With `Cc1ccc(S(=O)(=O)CCNC(=O)Cc2ccc(Cl)cc2)cc1` the AC50 [6] was 46.1 µM (active).
For `O=C(CCCn1c(=O)c2ccccc2n(Cc2cccc(F)c2)c1=O)NC1CCN(Cc2ccccc2)CC1`, the IC50 [7] was > 20 µM (inactive), the IC50 [8] was 2.11 µM (active) and the IC50 [9] was 1.31 µM (active).
With `COCCNc1nc2c(-c3cccc(C(F)(F)F)c3)nnn2c2ccccc12` the IC50 [7] was > 20 µM (inactive), the IC50 [8] was 10.3 µM (active) and the IC50 [9] was > 20 µM (inactive).
For `CC(C)(C)OC(=O)N1CCC(NC(=O)c2[nH]cnc2C(=O)Nc2ccon2)CC1`, the IC50 [10] was 47.2 µM (active), the EC50 [11] was 10.1 µM (active) and the EC50 [12] was 13.3 µM (active). For the same compound, the EC50 [13] was 13.9 µM (active).
For `CCc1ccc2c(COC(=O)C3CC(=O)N(CCc4ccccc4)C3)cc(=O)oc2c1` (centres undefined), the AC50 [6] was 133 µM (active).
For `CCOC(=O)CSc1cc(=O)n(CC)c2ccccc12`, the EC50 [14] was > 79.4 µM (inactive), the EC50 [15] was > 79.4 µM (not active) and the EC50 [16] was > 79.4 µM (not active).
In the case of `CN(C)S(=O)(=O)c1cccc(NC(=S)NNC(=O)c2cc3ccccc3cc2O)c1`, the IC50 [10] is reported as 34.2 µM (active), the EC50 [11] is reported as 8.74 µM (active) and the EC50 [12] is reported as 16.1 µM (active). For the same compound, the EC50 [13] was 12.5 µM (active) and the AC50 [17] was 77.8 µM (active).
With `Cc1cnc(CNc2cc(-c3ccccc3C(F)(F)F)ncn2)cn1` the AC50 [18] was 39.8 µM (inconclusive), the AC50 [19] was 25.1 µM (inconclusive) and the AC50 [20] was “inconclusive”. The AC50 [21] was “inconclusive”.
In the case of `CCN1CCN(C(=O)CSc2cc(=O)n(CC)c3ccccc23)CC1`, the EC50 [14] is reported as > 79.4 µM (inactive), the EC50 [15] is reported as > 79.4 µM (not active) and the EC50 [16] is reported as > 79.4 µM (not active). For the same compound, the IC50 [8] was > 20 µM (inactive) and the IC50 [22] was > 80 µM (inactive).
